According to patent US20030032003A1, “IN VIVO SELECTION” (priority 2000, published 2003):

Assays:
[1] = test system: Hprt +/+ bone marrow of recipient mice; experiment: Bone marrow replacement, Southern blot analysis of Y (donor) DNA; type: in vivo, mouse
From the text: The replacement of Hprt positive bone marrow with Hprt deficient bone marrow was examined by Southern blot analysis. Since recipients animals were females and donor bone marrow was of male origin, we have determined the fraction of cells containing chromosome (Y) in hematopoetic organs (bone marrow, spleen, thymus) and peripheral tissue (tail) in recipient animals. The Y chromosome was detected in 6TG treated and control animals.
Next Applicants tested whether “in vivo selection” without whole body irradiation can lead to complete bone marrow replacement. The wild type recipient mice were pretreated with 6TG (10 mg/kg twice in 48 hrs interval) or with sterile PBS and the Hprt deficient bone marrow was transplanted. The animals in the experimental group were 6TG pretreated followed with the 6TG in vivo selection protocol (described herein above). The control animals (6TG or PBS pretreated) were treated with sterile PBS buffer instead of 6TG. The degree of bone marrow replacement was evaluated by Southern blot analysis in hematopoetic tissues (bone marrow, spleen, thymus) and blood at the end of the 7th week post transplantation.

Hprt −/− mice [2] = experiment: Biochemical analysis of mouse serum after 6TG; type: in vivo; conditions: serum 14 days after treatment
Method: (§1) Serum biochemistry parameters analyzed included blood urea nitrogen (BUN), aspartate amino transferase (AST), alanine amino transferase (ALT), creatine kinase (CK), and alkaline phosphatase (AP). The analyses were performed at Tufts University Veterinary Medical Diagnosis Laboratory with the chemical analyser Hitachi 747. Blood was collected from the posterior vena cava of Hprt deficient mice that were either treated with water, 25, 500, or 720 mg/kg 6TG i.p. and wildtype mice administered 25 mg/kg 6TG.
[…] Serum samples taken 14 days after treatment were evaluated for the levels of blood urea nitrogen (BUN), aspartate amino transferase (AST), alanine amino transferase (ALT), creatine kinase (CK) and alkaline phosphatase (AP). Elevated BUN is associated with dehydratation and/or renal insufficiency. Elevated activities of ALT and AST are characteristic for liver damage particularly necrosis, cirrhosis and/or hepatitis and also muscle trauma or myocardial infarction or myositis. Elevated AP is associated mostly with increased bone marrow metabolism and also with hapatocellular damage during hepatitis. CK is predominantly located in muscles and therefore its increased activities are consequence of muscular trauma, myocardial infarction or myopathic disorders.

Hprt −/− mice [3] = experiment: Histopathological analysis of mouse tissues after 6TG
Hprt +/+ mice = experiment: Biochemical analysis of mouse serum after 6TG; type: in vivo; conditions: 25 mg/kg single i.p., serum 14 days after treatment
Method: as §1
Hprt wildtype mice were treated with the sublethal dose of 25 mg/kg 6TG and Hprt mutant mice were treated with the sublethal doses of […] 6TG. Serum samples taken 14 days after treatment were evaluated for the levels of blood urea nitrogen (BUN), aspartate amino transferase (AST), alanine amino transferase (ALT), creatine kinase (CK) and alkaline phosphatase (AP). Elevated BUN is associated with dehydratation and/or renal insufficiency. Elevated activities of ALT and AST are characteristic for liver damage particularly necrosis, cirrhosis and/or hepatitis and also muscle trauma or myocardial infarction or myositis. Elevated AP is associated mostly with increased bone marrow metabolism and also with hapatocellular damage during hepatitis. CK is predominantly located in muscles and therefore its increased activities are consequence of muscular trauma, myocardial infarction or myopathic disorders.

[4] = test system: T cells from Lesch Nyhan syndrome patients and Hprt deficient brothers; conditions: cited from earlier work
[5] = Hprt −/−, 6TG lethal 1148-2561 mg/kg, 3 mice
[6] = Hprt −/−, 6TG sublethal 25-720 mg/kg, 11 mice

Nc1nc(S)c2[nH]cnc2n1 [6TG, 2-amino-6-merkaptopurine]
bone marrow replacement ([1]; 6TG in vivo selection protocol, whether or not irradiation was used, end of 7th week post transplantation): 100% | engraftment of Hprt deficient bone marrow cells (containing Y chomosome) ([1]; irradiated recipients, 6TG selection in comparison to control animals): significantly increased engraftment | ALT (Hprt −/− mice [2]; 25 mg/kg single i.p.): 28.7 ± 14.9 u/l | AP (Hprt −/− mice [2]; 25 mg/kg single i.p.): 78.7 ± 22.5 u/l | AST (Hprt −/− mice [2]; 25 mg/kg single i.p.): 53.3 ± 17.5 u/l | BUN (Hprt −/− mice [2]; 25 mg/kg single i.p.): 18.5 ± 0.6 mg/dL | CK (Hprt −/− mice [2]; 25 mg/kg single i.p.): 67.7 ± 41.2 u/l | ALT (Hprt −/− mice [2]; 500 mg/kg single i.p.): 14.3 ± 3.5 u/l | AP (Hprt −/− mice [2]; 500 mg/kg single i.p.): 71.0 ± 38.0 u/l | AST (Hprt −/− mice [2]; 500 mg/kg single i.p.): 50. ± 11.8 u/l | BUN (Hprt −/− mice [2]; 500 mg/kg single i.p.): 18.0 ± 1.0 mg/dL | CK (Hprt −/− mice [2]; 500 mg/kg single i.p.): 52.0 ± 23.3 u/l | ALT (Hprt −/− mice [2]; 720 mg/kg single i.p.): 13.7 ± 1.5 u/l | AP (Hprt −/− mice [2]; 720 mg/kg single i.p.): 78.7 ± 20.5 u/l | AST (Hprt −/− mice [2]; 720 mg/kg single i.p.): 43.3 ± 14.0 u/l | BUN (Hprt −/− mice [2]; 720 mg/kg single i.p.): 20.0 ± 2.7 mg/dL | CK (Hprt −/− mice [2]; 720 mg/kg single i.p.): 37.3 ± 11.6 u/l | hyperplasia dose below doses causing toxicity (Hprt −/− mice [3]; Hprt deficient animals): 40 fold | dose at which liver necrosis appears (Hprt −/− mice [3]; Hprt deficient mice): ≥ 507 mg/kg | Kidneys Glomerulopathy, severity grade (Hprt −/− mice [3]; Hprt −/−, 25 mg/kg i.p.): 1 | Kidneys Intersticial inflamation, severity grade (Hprt −/− mice [3]; Hprt −/−, 25 mg/kg i.p.): 2 | Liver Centrilobular hypertrophy, severity grade (Hprt −/− mice [3]; Hprt −/−, 25 mg/kg i.p.): 3 | Bone marrow Hypercellular, severity grade (Hprt −/− mice [3]; Hprt −/−, 50 mg/kg i.p.): 1.0 ± 1.0 | Liver Centrilobular hypertrophy, severity grade (Hprt −/− mice [3]; Hprt −/−, 50 mg/kg i.p.): 1.5 ± 0.5 | Liver Fatty change, severity grade (Hprt −/− mice [3]; Hprt −/−, 50 mg/kg i.p.): 1.0 ± 1.0 | Bone marrow Hypercellular, severity grade (Hprt −/− mice [3]; Hprt −/−, 100 mg/kg i.p.): 1 | Liver Centrilobular hypertrophy, severity grade (Hprt −/− mice [3]; Hprt −/−, 100 mg/kg i.p.): 2 | Liver Extramedullary hematopoesis, severity grade (Hprt −/− mice [3]; Hprt −/−, 100 mg/kg i.p.): 1 | Liver Fatty change, severity grade (Hprt −/− mice [3]; Hprt −/−, 100 mg/kg i.p.): 1 | Bone marrow Hypercellular, severity grade (Hprt −/− mice [3]; Hprt −/−, 150 mg/kg i.p.): 2 | Kidneys Glomerulopathy, severity grade (Hprt −/− mice [3]; Hprt −/−, 150 mg/kg i.p.): 3 | Kidneys Intersticial inflamation, severity grade (Hprt −/− mice [3]; Hprt −/−, 150 mg/kg i.p.): 2 | Kidneys Tubule basophilia, severity grade (Hprt −/− mice [3]; Hprt −/−, 150 mg/kg i.p.): 1 | Kidneys Tubule dilatation, severity grade (Hprt −/− mice [3]; Hprt −/−, 150 mg/kg i.p.): 2 | Liver Centrilobular hypertrophy, severity grade (Hprt −/− mice [3]; Hprt −/−, 150 mg/kg i.p.): 2 | Liver Extramedullary hematopoesis, severity grade (Hprt −/− mice [3]; Hprt −/−, 150 mg/kg i.p.): 1 | Liver Fatty change, severity grade (Hprt −/− mice [3]; Hprt −/−, 150 mg/kg i.p.): 3 | Bone marrow Hypercellular, severity grade (Hprt −/− mice [3]; Hprt −/−, 225 mg/kg i.p.): 2 | Kidneys Glomerulopathy, severity grade (Hprt −/− mice [3]; Hprt −/−, 225 mg/kg i.p.): 2 | Kidneys Intersticial inflamation, severity grade (Hprt −/− mice [3]; Hprt −/−, 225 mg/kg i.p.): 2 | Kidneys Tubule basophilia, severity grade (Hprt −/− mice [3]; Hprt −/−, 225 mg/kg i.p.): 2 | Kidneys Tubule dilatation, severity grade (Hprt −/− mice [3]; Hprt −/−, 225 mg/kg i.p.): 2 | Liver Extramedullary hematopoesis, severity grade (Hprt −/− mice [3]; Hprt −/−, 225 mg/kg i.p.): 1 | Liver Fatty change, severity grade (Hprt −/− mice [3]; Hprt −/−, 225 mg/kg i.p.): 2 | Bone marrow Hypercellular, severity grade (Hprt −/− mice [3]; Hprt −/−, 338 mg/kg i.p.): 1 | Kidneys Glomerulopathy, severity grade (Hprt −/− mice [3]; Hprt −/−, 338 mg/kg i.p.): 1 | Kidneys Intersticial inflamation, severity grade (Hprt −/− mice [3]; Hprt −/−, 338 mg/kg i.p.): 2 | Kidneys Tubule basophilia, severity grade (Hprt −/− mice [3]; Hprt −/−, 338 mg/kg i.p.): 1 | Kidneys Tubule dilatation, severity grade (Hprt −/− mice [3]; Hprt −/−, 338 mg/kg i.p.): 1 | Liver Centrilobular hypertrophy, severity grade (Hprt −/− mice [3]; Hprt −/−, 338 mg/kg i.p.): 1 | Liver Extramedullary hematopoesis, severity grade (Hprt −/− mice [3]; Hprt −/−, 338 mg/kg i.p.): 1 | Liver Fatty change, severity grade (Hprt −/− mice [3]; Hprt −/−, 338 mg/kg i.p.): 2 | Spleen Lymphoid depletion, severity grade (Hprt −/− mice [3]; Hprt −/−, 338 mg/kg i.p.): 1 | Bone marrow Hypercellular, severity grade (Hprt −/− mice [3]; Hprt −/−, 507 mg/kg i.p.): 1.5 ± 0.5 | Kidneys Tubule basophilia, severity grade (Hprt −/− mice [3]; Hprt −/−, 507 mg/kg i.p.): 1.5 ± 0.5 | Kidneys Tubule dilatation, severity grade (Hprt −/− mice [3]; Hprt −/−, 507 mg/kg i.p.): 0.5 ± 0.5 | Liver Atrophy necrosis, severity grade (Hprt −/− mice [3]; Hprt −/−, 507 mg/kg i.p.): 1.0 ± 0.0 | Liver Centrilobular hypertrophy, severity grade (Hprt −/− mice [3]; Hprt −/−, 507 mg/kg i.p.): 2.0 ± 0.0 | Liver Extramedullary hematopoesis, severity grade (Hprt −/− mice [3]; Hprt −/−, 507 mg/kg i.p.): 1.5 ± 0.5 | Liver Fatty change, severity grade (Hprt −/− mice [3]; Hprt −/−, 507 mg/kg i.p.): 2.5 ± 0.5 | Bone marrow Hypercellular, severity grade (Hprt −/− mice [3]; Hprt −/−, 720 mg/kg i.p.): 1.5 ± 0.5 | Kidneys Glomerulopathy, severity grade (Hprt −/− mice [3]; Hprt −/−, 720 mg/kg i.p.): 0.5 ± 0.5 | Kidneys Intersticial inflamation, severity grade (Hprt −/− mice [3]; Hprt −/−, 720 mg/kg i.p.): 1.5 ± 0.5 | Kidneys Tubule basophilia, severity grade (Hprt −/− mice [3]; Hprt −/−, 720 mg/kg i.p.): 1.5 ± 0.5 | Kidneys Tubule dilatation, severity grade (Hprt −/− mice [3]; Hprt −/−, 720 mg/kg i.p.): 1.5 ± 0.5 | Liver Atrophy necrosis, severity grade (Hprt −/− mice [3]; Hprt −/−, 720 mg/kg i.p.): 0.5 ± 0.5 | Liver Centrilobular hypertrophy, severity grade (Hprt −/− mice [3]; Hprt −/−, 720 mg/kg i.p.): 1.0 ± 0.0 | Liver Extramedullary hematopoesis, severity grade (Hprt −/− mice [3]; Hprt −/−, 720 mg/kg i.p.): 1.0 ± 0.0 | Liver Fatty change, severity grade (Hprt −/− mice [3]; Hprt −/−, 720 mg/kg i.p.): 1.5 ± 0.5 | Spleen Lymphoid depletion, severity grade (Hprt −/− mice [3]; Hprt −/−, 720 mg/kg i.p.): 0.5 ± 0.5 | Bone marrow Depletion, average of lesion severity grade (Hprt −/− mice [3]; [5]): 2.3 ± 0.6 | Bone marrow Necrosis, average of lesion severity grade (Hprt −/− mice [3]; [5]): 3.0 ± 0.0 | Gastric epithelium Atrophy, average of lesion severity grade (Hprt −/− mice [3]; [5]): 0.6 ± 0.6 | Intestinal epithelium Atrophy, average of lesion severity grade (Hprt −/− mice [3]; [5]): 0.6 ± 0.6 | Kidneys Tubule dilatation, average of lesion severity grade (Hprt −/− mice [3]; [5]): 0.3 ± 0.6 | Liver Atrophy necrosis, average of lesion severity grade (Hprt −/− mice [3]; [5]): 1.3 ± 0.6 | Liver Centrilobular hypertrophy, average of lesion severity grade (Hprt −/− mice [3]; [5]): 1.0 ± 1.7 | Liver Extramedullary hematopoesis, average of lesion severity grade (Hprt −/− mice [3]; [5]): 0.3 ± 0.6 | Liver Fatty change, average of lesion severity grade (Hprt −/− mice [3]; [5]): 3.3 ± 0.6 | Spleen Lymphoid depletion, average of lesion severity grade (Hprt −/− mice [3]; [5]): 3.7 ± 0.6 | Spleen Necrosis, average of lesion severity grade (Hprt −/− mice [3]; [5]): 2.0 ± 1.7 | Bone marrow Hypercellular, average of lesion severity grade (Hprt −/− mice [3]; [6]): 1.2 ± 0.6 | Kidneys Glomerulopathy, average of lesion severity grade (Hprt −/− mice [3]; [6]): 1.0 ± 1.0 | Kidneys Intersticial inflamation, average of lesion severity grade (Hprt −/− mice [3]; [6]): 1.5 ± 1.0 | Kidneys Tubule basophilia, average of lesion severity grade (Hprt −/− mice [3]; [6]): 0.9 ± 0.8 | Kidneys Tubule dilatation, average of lesion severity grade (Hprt −/− mice [3]; [6]): 0.9 ± 0.9 | Liver Atrophy necrosis, average of lesion severity grade (Hprt −/− mice [3]; [6]): 0.2 ± 0.4 | Liver Centrilobular hypertrophy, average of lesion severity grade (Hprt −/− mice [3]; [6]): 1.2 ± 0.8 | Liver Extramedullary hematopoesis, average of lesion severity grade (Hprt −/− mice [3]; [6]): 0.8 ± 0.5 | Liver Fatty change, average of lesion severity grade (Hprt −/− mice [3]; [6]): 1.6 ± 0.9 | Spleen Lymphoid depletion, average of lesion severity grade (Hprt −/− mice [3]; [6]): 02 ± 0.4 | ALT (Hprt +/+ mice): 197 ± 66.8 u/l | AP (Hprt +/+ mice): 50.0 ± 33.4 u/l | AST (Hprt +/+ mice): 256.3 ± 73.9 u/l | BUN (Hprt +/+ mice): 45.0 ± 24.6 mg/dL | CK (Hprt +/+ mice): 73.3 ± 13.9 u/l | 6TG resistance higher than cells from normal individuals ([4]; T cells from Lesch Nyhan syndrome patients): 300 fold | 6TG resistance greater than normal individuals ([4]; T cells of Hprt deficient brothers without signs of the disease): 10 fold
